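Protocol summary: plate cells (96-well), add compound at 5 concentrations, incubate 48 h, interpolate endpoints linearly. GI50: concentration for 50% inhibition of growth. TGI denotes the concentration required for complete inhibition of growth.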

Common to all, as to assay: inhibition of tumour cell growth, NCI panel, 48 h
In experiment [1] the test system is NCI-H522 lung.
Experiment [2] deals with LOX IMVI melanoma.
In experiment [3] the test system is MDA-MB-435.
Experiment [4] deals with SF-539 CNS.
Experiment [5] concerns SNB-75 CNS.
Experiment [6] concerns SK-MEL-2 melanoma.
Experiment [7] concerns MALME-3M melanoma.
For experiment [8], the system named is SK-OV-3 ovarian.
Experiment [9] relates to NCI-H460 lung.
In experiment [10] the test system is HL-60(TB) leukemia.
In experiment [11] the test system is ACHN renal.
The test system of experiment [12] is BT-549 breast.
Experiment [13] deals with NCI-H23 lung.
Experiment [14] relates to MDA-MB-231 breast.

On to `Nc1nc(N)c2nc(CNc3ccc(C(=O)NC(CCCCNC(=O)c4ccccc4C(=O)O)C(=O)O)cc3)cnc2n1` (configuration not stated), for which the TGI in [1] was over 100 µM; in experiment [2] it was over 100 µM; in [3] it was over 31.6 µM; in [5], over 100 µM; in [6], over 100 µM; in experiment [7], over 100 µM. Besides, the TGI in experiment [8], in experiment [9], in [10], in [11], in experiment [12] and in experiment [13] was over 100 µM in each case. In experiment [14], this molecule yielded a TGI of over 100 µM. Also, the GI50 in [2] is 0.000869 µM; in experiment [4], 0.026 µM; in experiment [9], 0.00424 µM; in [10] it was 0.00244 µM; in experiment [11] it was 0.00519 µM; in experiment [13], 0.00915 µM.
With `O=c1oc2ccc([N+](=O)[O-])cc2c(Nc2ccc3c(c2)S(=O)(=O)c2ccccc2O3)c1[N+](=O)[O-]`, the TGI in experiment [1], in experiment [2], in experiment [3], in [4], in experiment [5] and in [6] was over 100 µM throughout. Also, the TGI in [7], in [8], in experiment [9], in experiment [10], in [11] and in [12] was over 100 µM in each case. The TGI in experiment [13] and in experiment [14] was over 100 µM in each case.
As for `CCOC(=O)/C(C#N)=C/c1ccc2c(c1)CC1(C2)Cc2cc(CC)c(C(C)O)cc2C1` (configuration not stated), the TGI in experiment [1] was over 100 µM; in experiment [2] it was 22 µM; in [3], 4.83 µM; in experiment [4] it was 22.1 µM; in experiment [5], 46.3 µM; in [6], 27.2 µM. In addition, the TGI was 24.4 µM in experiment [7]; 98.2 µM in experiment [8]; 77.1 µM in experiment [9]; 8.51 µM in experiment [10]; over 85.1 µM in experiment [11]; 23.4 µM in [12]. Further, the figures for the TGI in [13] and in experiment [14] were 39.5 µM and 27.1 µM, respectively.
Regarding `S=C1N=C(Cl)/C(=C\c2ccccc2)N1`, the TGI in [1], in experiment [2], in experiment [3], in experiment [4], in experiment [5] and in experiment [6] was over 100 µM each time. Moreover, the TGI in [7], in [8], in experiment [9], in [10], in [11] and in experiment [12] was over 100 µM in each case. Also, the TGI in [13] and in experiment [14] was over 100 µM throughout.
On to `C=CCn1c(-c2ccc(-c3cs/c(=N\N=O)n3CC=C)cc2)cs/c1=N\N=O`, for which the TGI in [1] is over 100 µM; in experiment [2] it was over 100 µM; in [3], over 100 µM; in experiment [4] it was over 100 µM; in [5], 88.5 µM; in experiment [6], over 100 µM. The TGI in experiment [7], in experiment [8], in [9], in experiment [10], in experiment [11] and in experiment [12] was over 100 µM in each case. Besides, the results for the TGI in experiment [13] and in experiment [14] were over 100 µM and 69.3 µM, respectively.
In the case of `CN(C)CC1CN=C(NC(=O)Nc2ccccc2)O1` (configuration not stated), the TGI in experiment [1], in experiment [2], in experiment [3], in [4], in experiment [5] and in experiment [6] was over 100 µM in each case. The TGI in experiment [7], in experiment [8], in experiment [9], in experiment [10], in experiment [11] and in experiment [12] was over 100 µM each time. Besides, the TGI in experiment [13] and in [14] was over 100 µM in each case.
Consider `NC(=O)c1cccc([C@@H]2O[C@H](CO)[C@@H](O)[C@H]2O)c1`, for which the TGI was 10.2 µM in experiment [1]; over 85.4 µM in experiment [2]; over 90.3 µM in experiment [3]; 6.28 µM in experiment [4]; 14.4 µM in experiment [5]; over 100 µM in [6]. Moreover, the TGI in [7] is over 100 µM; in experiment [8], 35.7 µM; in [9] it was over 100 µM; in experiment [10], 10.2 µM; in experiment [11], 71.3 µM; in [12], 43.4 µM. Further, the TGI was 35.4 µM in [13] and over 100 µM in experiment [14].
With `C=C(C)C12CC3CC/C(=N/O)C(C1)C3(N1CCOCC1)C/C2=N/O` (configuration not stated), the TGI in experiment [1], in experiment [2], in experiment [3], in experiment [4], in experiment [5] and in experiment [6] was over 100 µM each time. The TGI in experiment [7], in experiment [8], in experiment [9], in experiment [10], in [11] and in experiment [12] was over 100 µM throughout. Moreover, the TGI in experiment [13] and in [14] was over 100 µM throughout.
`CCOP(=O)(OCC)/C(C#N)=C/c1c[nH]c2ccccc12`: the TGI in experiment [1], in experiment [2], in experiment [3], in experiment [4], in experiment [5] and in experiment [6] was over 100 µM each time. Further, the TGI in experiment [7], in experiment [8], in experiment [9], in experiment [10], in experiment [11] and in experiment [12] was over 100 µM in each case. Further, the TGI in experiment [13] and in [14] was over 100 µM in each case.
For the molecule `CCc1cc2c(oc3cc(C)ccc32)c(=O)n1C`, the TGI in [1], in [2], in experiment [3], in experiment [4], in experiment [5] and in experiment [6] was over 10 µM in each case. Further, the TGI in experiment [7], in [8], in experiment [9], in experiment [10], in experiment [11] and in [12] was over 10 µM throughout. For the same molecule, the TGI in [13] and in experiment [14] was over 10 µM each time.
For the molecule `COc1ccc(C(=O)Nc2ccc3oc(-c4ccccc4)nc3c2)cc1`, the TGI is over 100 µM in [1]; over 100 µM in experiment [2]; over 100 µM in experiment [3]; over 100 µM in experiment [4]; 89.8 µM in [5]; over 100 µM in [6]. The TGI in [7], in experiment [8], in experiment [9], in [10], in experiment [11] and in [12] was over 100 µM throughout. Further, the TGI in [13] and in experiment [14] was over 100 µM in each case.
In the case of `CC[C@@H]1/C=C/C=C/C[C@H](C)[C@@H](O)[C@](C)(O)C(=O)[C@H](C)[C@@H](O)[C@H](C)C(=O)[C@H](C)[C@@H](O)[C@H](C)/C=C/C(=O)O[C@H]2[C@@H](C)[C@@H](CC1)O[C@@]1(CC[C@@H](C)[C@@H](CC(C)O)O1)[C@@H]2C` (some centres not stated), the TGI is 3.89 µM in [1]; 4.32 µM in experiment [2]; 6.89 µM in experiment [3]; 10.3 µM in experiment [4]; 9.11 µM in experiment [5]; 8.4 µM in experiment [6]. For the same molecule, the TGI in experiment [7] was 15.6 µM; in [8] it was 14.5 µM; in experiment [9], 4.25 µM; in experiment [10], 4.25 µM; in experiment [11] it was 8.69 µM; in [12], 4.94 µM. For the same molecule, the values for the TGI in [13] and in experiment [14] were 7.94 µM and 6.65 µM, respectively.
As for `O=c1[nH]c2c(c(=O)[nH]1)SSC2`, the TGI was determined as 38.5 µM in experiment [1]; 6.24 µM in [2]; 4.67 µM in [3]; 9.7 µM in experiment [4]; 34.8 µM in experiment [5]; 14.5 µM in [6]. The TGI in experiment [7] was 10.1 µM; in [8], 50.9 µM; in experiment [9] it was 27.2 µM; in [10] it was 32.6 µM; in experiment [11] it was over 67.5 µM; in experiment [12], 6.65 µM. The TGI amounted to 26.9 µM in experiment [13] and 5.15 µM in [14].

Values taken from PubChem BioAssay (NCI).
